Experiment [1] concerns PDE4. Put plainly: Inhibition of PDE4 activity, two-step procedure and Lineweaver-Burk analysis. In kind it is biochemical, guinea pig. The method, then: (§1) Activities of PDE1~5 in the homogenate of guinea pig lungs or hearts were measured by a two-step procedure according to the previous method, using cAMP with [^3H]-cAMP or cGMP with [^3H]-cGMP as substrates. […] The reagents and homogenate were mixed on ice, and the reaction was initiated by transferring the mixture to a water bath at 37°C. Following a 30-min incubation, the reaction was stopped by transferring the reaction vessel to a bath of boiling water for 3 min. After cooling on ice, 20 μl of a 1 mg/ml solution of Crotalus atrox snake venom was added to the reaction mixture, and the mixture was incubated at 37°C for 10 min. Unreacted [^3H]-cAMP or [^3H]-cGMP was removed by the addition of 500 μl of a 1-in-1 Tris-HCl (40 mM) buffer suspension of Dowex resin (1 × 8-200) with incubation on ice for 30 min. Each tube was then centrifuged at 3700 g for 2 min, and 150 μl of the supernatant was removed for liquid scintillation counting. […] The total protein in each fraction used was assayed according to a previous method. PDE activities are reported as nmol/mg/min.

Experiment [2] concerns total IgG2a, total and OVA-specific IgE. Put plainly: IgE and IgG2a levels in serum and BALF of sensitized and challenged mice (ELISA). The note with it: 3~30 μmol/kg p.o. In kind it is in vivo, BABL/c mice. As for the experimental part:
According to the schedule (Figure 1), ten female BABL/c mice in each group were sensitized by an intraperitoneal (i.p.) injection of 20 μg of OVA emulsified in 2.25 mg of an aluminum hydroxide gel, prepared from aluminum sulfate hexadecahydrate, in a total volume of 100 μl on days 0 and 14. On day 21, these mice were injected with (i.p.) 100 μl of a mixture of 1% OVA and Freund's complete adjuvant (1:1). Mice were challenged via the airway using 1% OVA in saline for 30 min on days 28, 29, and 30 by ultrasonic nebulization. After the last of OVA challenges, AHR was assessed on day 32 (48 h after 1% OVA provocation) in each group. Each group of mice was orally (p.o.) administered the vehicle (control) or 3~30 μmol/kg of HDME 2 h before and 6 and 24 h after OVA provocation. For comparison, sham-treated mice were challenged with saline instead of 1% OVA (non-challenged). […] AHR was assessed using two methods: (1) in anesthetized ventilated mice, AHR was assessed as previously described by measuring changes in the airway resistance (RL, cmH2O/ml/sec) and lung dynamic compliance (Cdyn, ml/cmH2O) after challenge with aerosolized methacholine (MCh, 0.78~25 mg/ml) using the FlexiVent system (SCIREQ, Montreal, Quebec, Canada). Anesthetized (urethane 600 mg/kg and chloralose 120 mg/kg, i.p.), tracheostomized (stainless-steel cannula, 18 G) mice were mechanically ventilated (at 150 breaths/min, with a tidal volume of 10 ml/kg, positive end-expiratory pressure of 3 cmH2O). (2) in unrestrained animals by barometric plethysmography using a whole-body plethysmograph (WBP) and analyzed using software of Life Science Suite P3 Analysis Modules (Gould, LDS Test and Measurement LLC, Valley View, OH, USA). Mice were placed into the main chamber of the WBP, and the baseline enhanced pause (Penh) value was determined. Then mice were first nebulized with phosphate-buffered saline (PBS), and subsequently with increasing doses (6.25~50 mg/ml) of MCh for 3 min for each nebulization, followed by readings of breathing parameters for 3 min after each nebulization to determine Penh values.
Twenty-four hours after Penh determination, these mice were anesthetized with pentobarbital (50 mg/kg, i.p.), and the lungs were lavaged via a tracheal tube with PBS (1 × 1.0 ml, 37°C). After lavage, blood was collected from the jugular vein and allowed to sit so that it would coagulate. The collected bronchoalveolar lavage fluid (BALF) and coagulated blood were respectively centrifuged at 630 g for 7 min and at 3700 g for 10 min at 4°C. After centrifugation, the BALF and serum supernatants were stored at -20°C until determination of cytokines, including interleukin (IL)-2, IL-4, IL-5, tumor necrosis factor (TNF)-α, and interferon (IFN)-γ by flow cytometric methods using mouse T helper (Th)1/Th2 cytokine CBA kits, and of total immunoglobulin (Ig)E or IgG2a using ELISA kits (Pharmingen, San Diego, CA, USA) according to the respective recommendations of the manufacturers. OVA-specific IgE was measured as described previously. Wells were coated with 100 μl of OVA (20 μg/ml) instead of the capture antibody. Levels are expressed in arbitrary units, where 1 arbitrary unit equals the optical density of the sample divided by the optical density of unchallenged mouse serum or BALF (standard). […] The number of inflammatory cells was counted using a hemocytometer (Hausser Scientific, Horsham, PA, USA). […]

In experiment [3] the test system is PDE2. Briefly: Inhibition of PDE2 activity, two-step procedure. In kind it is biochemical. Particulars: homogenate of guinea pig lungs or hearts. The method, then:
as §1

A word on the Ki: it is a measure of affinity in units of concentration, obtained from inhibition or displacement. In general, IC50 refers to the midpoint of a concentration-inhibition curve. Take `COc1cc(O)c2c(c1)O[C@H](c1ccc(OC)c(OC)c1)CC2=O` [HDME, hesperetin-7,3'-O-dimethylether]: the “mode of PDE4 inhibition” value in experiment [1] (Lineweaver-Burk analysis, inhibitor 1~10 μM) is given as “competitively inhibited”. The inhibitory constant (Ki) in experiment [1] (Lineweaver-Burk analysis, inhibitor 1~10 μM, substrate cAMP, read-out: dissociation constant for inhibitory binding (Ki), PDE4) came to 2.1 ± 1.3 µM. Besides, in experiment [1] (homogenate of guinea pig lungs or hearts), the 50% inhibitory concentration (IC50) was 3 ± 0.9 µM. In experiment [2], the “effect on OVA-specific IgE level in the BALF” value was “dose-dependently and significantly suppressed”; the “effect on OVA-specific IgE level in the serum” value was “dose-dependently and significantly suppressed”; the “effect on total IgE level in the BALF” value is “dose-dependently and significantly suppressed”; the “effect on total IgE level in the serum” value was “dose-dependently and significantly suppressed”. Besides, the “effect on total IgG2a level in the serum” value in experiment [2] was “dose-dependently and significantly enhanced”. Also, the IC50 in experiment [3] is over 100 µM.

These data come from article PMC3225327 (Journal of Biomedical Science, 2011).
